# The supplement of paper PMC10307832
# How the values were obtained:
# Assay in all cases: relative viability (nuclei count vs DMSO), 5 days (fraction); higher = more cells survive
# Halofuginone + Foretinib = compound: O=C(C[C@H]1NCCC[C@@H]1O)Cn1cnc2cc(Br)c(Cl)cc2c1=O (racemic) [Halofuginone] + COc1cc2c(Oc3ccc(NC(=O)C4(C(=O)Nc5ccc(F)cc5)CC4)cc3F)ccnc2cc1OCCCN1CCOCC1 [Foretinib] (partner 0.25 µM)
# Summary of the method: (§1)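 A single step with final 0.05% Triton X-100, 1% formaldehyde and 1 ug/ml Hoechst fixed the cells and stained nuclei 5 days after treatment. Lung cancer cell lines in 1536-well plates had been treated by pin tool the day after seeding with one drug alone or a fixed anchor-drug dose plus five library-drug doses (not always all listed) in √10 steps, and nuclei were counted on 4× images. Relative viability is the ratio of nuclei in treated wells to nuclei in vehicle wells, taken as the median of duplicate plates.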
# Decitabine + Alpelisib = compound: Nc1ncn([C@H]2C[C@H](O)[C@@H](CO)O2)c(=O)n1 [Decitabine] + Cc1nc(NC(=O)N2CCC[C@H]2C(N)=O)sc1-c1ccnc(C(C)(C)C(F)(F)F)c1 [Alpelisib] (partner 2 µM)
# Summary of the method: as §1
# [1] = compound: O=C(C[C@H]1NCCC[C@@H]1O)Cn1cnc2cc(Br)c(Cl)cc2c1=O (racemic) [Halofuginone] + Nc1ncn([C@H]2C[C@H](O)[C@@H](CO)O2)c(=O)n1 [Decitabine] (partner 2 µM)
# Summary of the method: as §1
# Cediranib + Dasatinib = compound: COc1cc2c(Oc3ccc4[nH]c(C)cc4c3F)ncnc2cc1OCCCN1CCCC1 [Cediranib] + Cc1nc(Nc2ncc(C(=O)Nc3c(C)cccc3Cl)s2)cc(N2CCN(CCO)CC2)n1 [Dasatinib] (partner 0.075 µM)
# Summary of the method: as §1
Cell Line,relative viability (Halofuginone + Foretinib; first compound 0.001 µM),relative viability (Halofuginone + Foretinib; first compound 0.003162 µM),relative viability (Halofuginone + Foretinib; first compound 0.01 µM),relative viability (Halofuginone + Foretinib; first compound 0.03162 µM),relative viability (Halofuginone + Foretinib; first compound 0.1 µM),relative viability (Decitabine + Alpelisib; first compound 0.1265 µM),relative viability (Decitabine + Alpelisib; first compound 0.4 µM),relative viability (Decitabine + Alpelisib; first compound 1.265 µM),relative viability (Decitabine + Alpelisib; first compound 4 µM),relative viability ([1]; first compound 0.001 µM),relative viability ([1]; first compound 0.003162 µM),relative viability ([1]; first compound 0.01 µM),relative viability ([1]; first compound 0.03162 µM),relative viability ([1]; first compound 0.1 µM),relative viability (Cediranib + Dasatinib; first compound 0.04 µM),relative viability (Cediranib + Dasatinib; first compound 0.1265 µM),relative viability (Cediranib + Dasatinib; first compound 0.4 µM),relative viability (Cediranib + Dasatinib; first compound 1.265 µM),relative viability (Cediranib + Dasatinib; first compound 4 µM),relative viability (Decitabine + Alpelisib; first compound 0.04 µM)
PC-3 [JPC-3],1.02,1.04,0.981,0.996,1.08,0.773,0.581,0.493,0.479,0.77,0.832,0.861,0.923,0.781,1.09,1.1,0.966,1.04,0.909,–
HCC-44,–,–,–,–,–,0.779,0.253,0.462,0.336,0.967,0.992,0.953,0.973,0.902,–,–,–,–,–,0.66
NCI-H2405,1.11,1.1,1.03,1.02,0.888,0.753,0.698,0.494,0.373,0.74,0.781,0.767,0.722,0.632,0.2,0.583,0.227,0.196,0.218,0.737
LXF-289,1.01,1.04,0.927,1.01,0.922,0.606,0.478,0.352,0.315,0.395,0.393,0.383,0.418,0.381,0.252,0.3,0.192,0.3,0.236,0.716
A549,1.06,0.921,0.925,0.507,0.112,0.56,0.494,0.214,0.165,0.338,0.278,0.293,0.257,0.258,–,–,–,–,–,0.647
Calu-6,0.961,0.95,0.925,0.472,0.109,0.681,0.547,0.322,0.279,–,–,–,–,–,–,–,–,–,–,0.736
NCI-H1648,–,–,–,–,–,–,–,–,–,0.518,0.525,0.512,0.559,0.506,–,–,–,–,–,–
CAL-12T,1.33,1.21,1.08,1.41,0.898,0.997,0.793,0.514,0.34,–,–,–,–,–,0.438,0.285,0.504,0.489,0.364,0.686
NCI-H2342,1.22,0.984,0.971,0.963,1.08,–,–,–,–,0.664,0.724,0.722,0.671,0.685,0.334,0.392,0.288,0.295,0.327,–
ChaGo-K-1,0.999,0.915,0.93,0.881,0.786,–,–,–,–,0.548,0.531,0.474,0.532,0.532,0.524,0.508,0.608,0.578,0.626,–
NCI-H1703,0.301,0.295,0.363,0.294,0.337,0.27,0.259,0.246,0.195,–,–,–,–,–,–,–,–,–,–,0.248
NCI-H1650,1.33,1.11,0.964,0.601,0.177,–,–,–,–,0.468,0.5,0.439,0.491,0.369,0.343,0.384,0.328,0.37,0.299,–
NCI-H522,–,–,–,–,–,–,–,–,–,0.735,0.673,0.871,0.753,0.717,0.827,0.77,0.85,0.965,0.811,–
NCI-H1563,0.985,0.879,0.905,0.662,0.509,0.965,1.02,0.97,0.824,–,–,–,–,–,0.494,0.897,0.498,0.513,0.492,1.06
SW 900,1.1,0.833,0.809,0.627,0.355,–,–,–,–,0.484,0.418,–,0.443,0.358,0.629,0.669,0.594,0.654,0.524,–
NCI-H1792,–,–,–,–,–,0.765,0.724,0.383,0.323,0.652,0.609,0.529,0.541,0.186,0.823,0.872,0.557,0.923,0.957,0.619
NCI-H2228,0.908,1.08,0.777,0.325,0.146,0.41,0.453,0.298,0.201,–,–,–,–,–,0.634,0.505,0.52,0.54,0.601,0.479
NCI-H1623,0.888,0.895,0.954,0.876,0.536,–,–,–,–,–,–,–,–,–,0.618,–,0.523,0.463,0.536,–
IA-LM,1.29,1.03,1.08,0.982,0.07,0.406,0.297,0.207,0.152,–,–,–,–,–,–,–,–,–,–,0.464
EBC-1,0.106,0.112,0.108,0.104,0.104,0.453,0.421,0.305,0.271,–,–,–,–,–,–,–,–,–,–,0.516
NCI-H1299,1.13,1.13,1.07,1.09,0.561,1.07,0.985,0.904,0.899,–,–,–,–,–,–,–,–,–,–,1.07
